Test results: US10231954B2, “Neurodegenerative therapies” (LYTIX BIOPHARMA AS, priority 2014, dated 2019)

How the values were obtained:
MKK2 = MKK2 (Homo sapiens, UniProt P36507); assay: Kinase profiling MKK2; type: biochemical; settings: 100 micromolar inhibitor concentration, 100 is no change
Description: (§1) Any value less that 25 is considered to be highly significant inhibition.

ERK1 = ERK1 (Homo sapiens, UniProt P27361); assay: Kinase profiling ERK1; type: biochemical; settings: 100 micromolar inhibitor concentration, 100 is no change
Description: as §1

JNK1 = JNK1 (Homo sapiens, UniProt P45983); assay: Kinase profiling JNK1; type: biochemical; settings: 100 micromolar inhibitor concentration, 100 is no change
Description: as §1

PKBb = PKBb (Homo sapiens, UniProt P31751); assay: Kinase profiling PKBb; type: biochemical; settings: for residual kinase activity, PKBb: 100 micromolar inhibitor concentration, 100 is no change
Description: as §1

SGK1 = target: T1, SGK1 (Homo sapiens, UniProt O00141); assay: Kinase profiling SGK1; type: biochemical; settings: 100 micromolar inhibitor concentration, 100 is no change
T1 sequence (O00141 1-431): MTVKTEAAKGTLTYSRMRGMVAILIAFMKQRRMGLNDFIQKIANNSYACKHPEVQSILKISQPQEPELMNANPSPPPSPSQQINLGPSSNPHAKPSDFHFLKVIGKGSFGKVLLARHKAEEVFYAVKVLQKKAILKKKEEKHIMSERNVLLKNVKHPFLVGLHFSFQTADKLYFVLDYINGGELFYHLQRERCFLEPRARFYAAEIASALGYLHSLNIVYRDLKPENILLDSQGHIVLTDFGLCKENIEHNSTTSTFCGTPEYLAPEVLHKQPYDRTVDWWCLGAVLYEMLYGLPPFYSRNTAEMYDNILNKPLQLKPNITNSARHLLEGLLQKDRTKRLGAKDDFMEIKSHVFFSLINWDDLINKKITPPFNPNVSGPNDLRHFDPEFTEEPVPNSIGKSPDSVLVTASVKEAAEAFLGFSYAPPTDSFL
Description: as §1

PKCz = target: T2, PKCz (Homo sapiens, UniProt Q05513); assay: Kinase profiling PKCz; type: biochemical; settings: 100 micromolar inhibitor concentration, 100 is no change
T2 sequence (Q05513 1-592): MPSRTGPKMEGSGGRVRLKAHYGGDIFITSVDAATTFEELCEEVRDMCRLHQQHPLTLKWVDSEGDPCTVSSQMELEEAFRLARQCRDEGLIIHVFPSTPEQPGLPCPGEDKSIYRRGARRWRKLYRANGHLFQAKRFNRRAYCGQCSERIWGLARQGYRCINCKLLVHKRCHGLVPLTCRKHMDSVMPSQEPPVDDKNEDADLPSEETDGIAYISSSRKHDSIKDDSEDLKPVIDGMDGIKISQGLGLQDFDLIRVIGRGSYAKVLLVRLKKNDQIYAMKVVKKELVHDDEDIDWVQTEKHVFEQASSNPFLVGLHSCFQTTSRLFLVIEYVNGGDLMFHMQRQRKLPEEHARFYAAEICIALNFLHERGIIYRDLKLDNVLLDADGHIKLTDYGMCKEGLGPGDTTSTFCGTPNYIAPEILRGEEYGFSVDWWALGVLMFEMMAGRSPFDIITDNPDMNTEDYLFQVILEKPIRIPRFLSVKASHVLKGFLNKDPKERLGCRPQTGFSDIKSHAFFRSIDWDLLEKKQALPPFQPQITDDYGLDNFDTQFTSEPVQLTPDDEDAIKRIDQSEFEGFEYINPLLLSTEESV
Description: as §1

CAMK1 = CAMK1 (Homo sapiens, UniProt Q14012); assay: Kinase profiling CAMK1; type: biochemical; settings: 100 micromolar inhibitor concentration, 100 is no change
Description: as §1

LKB1 = target: T3, LKB1 (Homo sapiens, UniProt Q15831); assay: Kinase profiling LKB1; type: biochemical; settings: 100 micromolar inhibitor concentration, 100 is no change
T3 sequence (Q15831 1-433): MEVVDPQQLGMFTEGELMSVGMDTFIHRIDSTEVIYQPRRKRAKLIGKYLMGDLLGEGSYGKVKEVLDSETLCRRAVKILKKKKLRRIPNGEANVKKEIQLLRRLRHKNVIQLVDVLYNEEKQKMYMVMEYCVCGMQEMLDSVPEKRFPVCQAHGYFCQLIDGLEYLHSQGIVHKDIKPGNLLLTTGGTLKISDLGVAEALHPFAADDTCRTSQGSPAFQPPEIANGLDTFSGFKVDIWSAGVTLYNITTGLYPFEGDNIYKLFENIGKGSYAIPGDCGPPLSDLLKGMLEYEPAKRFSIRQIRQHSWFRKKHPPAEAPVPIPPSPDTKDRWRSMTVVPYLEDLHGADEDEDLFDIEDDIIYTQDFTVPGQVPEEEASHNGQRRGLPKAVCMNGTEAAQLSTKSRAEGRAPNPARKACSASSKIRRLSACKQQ
T3 sequence (Q7RTN6 1-431 partner): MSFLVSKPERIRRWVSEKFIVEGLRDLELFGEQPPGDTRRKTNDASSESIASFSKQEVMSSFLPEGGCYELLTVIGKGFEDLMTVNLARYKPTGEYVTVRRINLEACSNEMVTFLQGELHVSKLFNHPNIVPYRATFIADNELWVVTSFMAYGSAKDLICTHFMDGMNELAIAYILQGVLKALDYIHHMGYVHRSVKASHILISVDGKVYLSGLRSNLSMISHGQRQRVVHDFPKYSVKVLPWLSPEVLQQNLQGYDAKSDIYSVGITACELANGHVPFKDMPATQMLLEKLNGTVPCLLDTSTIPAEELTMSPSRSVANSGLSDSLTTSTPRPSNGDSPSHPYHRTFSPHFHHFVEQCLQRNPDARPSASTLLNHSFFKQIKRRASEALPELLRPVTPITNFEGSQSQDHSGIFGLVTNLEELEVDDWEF
T3 sequence (Q9Y376 1-341 partner): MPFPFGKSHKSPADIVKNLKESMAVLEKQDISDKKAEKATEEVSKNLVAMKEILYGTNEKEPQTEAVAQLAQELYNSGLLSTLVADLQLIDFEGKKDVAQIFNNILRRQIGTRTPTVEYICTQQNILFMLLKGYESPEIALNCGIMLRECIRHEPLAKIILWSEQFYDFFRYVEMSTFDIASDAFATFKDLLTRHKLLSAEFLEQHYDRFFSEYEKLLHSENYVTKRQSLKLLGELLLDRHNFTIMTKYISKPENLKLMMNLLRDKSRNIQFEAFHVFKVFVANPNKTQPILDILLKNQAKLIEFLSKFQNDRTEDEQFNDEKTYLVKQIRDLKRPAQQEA
Description: as §1

AMPK (hum) = assay: Kinase profiling AMPK (hum); type: biochemical, human; settings: 100 micromolar inhibitor concentration; 100 is no change
Description: as §1

CK2 = assay: Kinase profiling CK2; type: biochemical; settings: 100 micromolar inhibitor concentration; 100 is no change
Description: as §1

SRPK1 = SRPK1 (Homo sapiens, UniProt Q96SB4); assay: Kinase profiling SRPK1; type: biochemical; settings: 100 micromolar inhibitor concentration, 100 is no change
Description: as §1

MLK3 = MLK3 (Homo sapiens, UniProt Q16584); assay: Kinase profiling MLK3; type: biochemical; settings: 100 micromolar inhibitor concentration, 100 is no change
Description: as §1

IGF-1R = IGF-1R (Homo sapiens, UniProt P08069); assay: Kinase profiling IGF-1R; type: biochemical; settings: 100 micromolar inhibitor concentration, 100 is no change
Description: as §1

Sequence of PKBb (P31751 whole entry): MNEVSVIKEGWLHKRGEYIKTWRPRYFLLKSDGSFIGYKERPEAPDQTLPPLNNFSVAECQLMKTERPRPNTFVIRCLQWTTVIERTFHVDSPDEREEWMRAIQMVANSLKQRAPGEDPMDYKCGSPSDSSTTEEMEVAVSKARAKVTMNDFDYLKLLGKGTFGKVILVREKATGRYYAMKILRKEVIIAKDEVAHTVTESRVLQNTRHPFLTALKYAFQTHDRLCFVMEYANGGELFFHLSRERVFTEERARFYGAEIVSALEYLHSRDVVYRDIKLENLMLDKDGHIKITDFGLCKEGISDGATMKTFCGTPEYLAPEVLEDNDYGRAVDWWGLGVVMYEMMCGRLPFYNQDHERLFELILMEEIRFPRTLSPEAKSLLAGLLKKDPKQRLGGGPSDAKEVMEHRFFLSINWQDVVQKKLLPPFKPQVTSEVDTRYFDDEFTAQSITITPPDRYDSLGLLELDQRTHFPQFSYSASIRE
Sequence of JNK1 (P45983 whole entry, species assumed): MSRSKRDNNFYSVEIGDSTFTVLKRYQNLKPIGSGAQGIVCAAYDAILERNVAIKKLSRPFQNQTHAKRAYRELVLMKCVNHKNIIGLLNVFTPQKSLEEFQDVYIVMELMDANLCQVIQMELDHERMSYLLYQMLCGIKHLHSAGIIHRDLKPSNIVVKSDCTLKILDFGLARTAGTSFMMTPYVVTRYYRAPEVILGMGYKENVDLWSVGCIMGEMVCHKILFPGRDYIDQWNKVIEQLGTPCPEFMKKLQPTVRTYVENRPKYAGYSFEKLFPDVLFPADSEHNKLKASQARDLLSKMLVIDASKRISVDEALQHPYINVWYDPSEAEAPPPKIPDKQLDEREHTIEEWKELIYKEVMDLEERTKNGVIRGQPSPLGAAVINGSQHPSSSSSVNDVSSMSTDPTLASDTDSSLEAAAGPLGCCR
Sequence of ERK1 (P27361 whole entry, species assumed): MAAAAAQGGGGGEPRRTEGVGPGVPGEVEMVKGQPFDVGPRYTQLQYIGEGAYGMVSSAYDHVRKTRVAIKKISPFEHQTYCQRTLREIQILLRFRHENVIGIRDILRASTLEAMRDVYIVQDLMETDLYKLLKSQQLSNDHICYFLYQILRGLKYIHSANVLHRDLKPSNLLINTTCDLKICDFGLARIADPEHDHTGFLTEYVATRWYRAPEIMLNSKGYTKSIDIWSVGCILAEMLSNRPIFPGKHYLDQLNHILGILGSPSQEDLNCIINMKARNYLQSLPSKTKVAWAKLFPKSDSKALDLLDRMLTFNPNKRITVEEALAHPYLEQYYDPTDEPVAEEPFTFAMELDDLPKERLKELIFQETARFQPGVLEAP
Sequence of CAMK1 (Q14012 whole entry, species assumed): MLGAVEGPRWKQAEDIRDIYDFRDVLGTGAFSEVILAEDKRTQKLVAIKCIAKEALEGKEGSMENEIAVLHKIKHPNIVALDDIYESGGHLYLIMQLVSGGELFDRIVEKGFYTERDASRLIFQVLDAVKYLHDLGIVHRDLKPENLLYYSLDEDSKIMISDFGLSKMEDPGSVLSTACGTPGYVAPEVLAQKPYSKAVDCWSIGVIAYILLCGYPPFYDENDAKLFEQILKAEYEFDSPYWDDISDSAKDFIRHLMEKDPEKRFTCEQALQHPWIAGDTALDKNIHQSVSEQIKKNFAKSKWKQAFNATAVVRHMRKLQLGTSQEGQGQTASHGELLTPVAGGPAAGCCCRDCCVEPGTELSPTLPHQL
Sequence of MKK2 (P36507 whole entry, species assumed): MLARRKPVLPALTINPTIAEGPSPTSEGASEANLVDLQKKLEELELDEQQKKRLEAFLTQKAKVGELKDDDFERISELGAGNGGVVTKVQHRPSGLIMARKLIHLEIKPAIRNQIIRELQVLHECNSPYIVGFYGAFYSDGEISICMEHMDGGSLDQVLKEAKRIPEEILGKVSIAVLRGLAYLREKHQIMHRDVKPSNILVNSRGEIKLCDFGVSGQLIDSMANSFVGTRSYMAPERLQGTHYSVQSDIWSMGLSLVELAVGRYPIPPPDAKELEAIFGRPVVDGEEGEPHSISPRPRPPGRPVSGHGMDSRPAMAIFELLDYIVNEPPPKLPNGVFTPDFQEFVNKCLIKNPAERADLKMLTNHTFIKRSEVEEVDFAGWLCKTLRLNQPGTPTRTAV
Sequence of SRPK1 (Q96SB4 whole entry, species assumed): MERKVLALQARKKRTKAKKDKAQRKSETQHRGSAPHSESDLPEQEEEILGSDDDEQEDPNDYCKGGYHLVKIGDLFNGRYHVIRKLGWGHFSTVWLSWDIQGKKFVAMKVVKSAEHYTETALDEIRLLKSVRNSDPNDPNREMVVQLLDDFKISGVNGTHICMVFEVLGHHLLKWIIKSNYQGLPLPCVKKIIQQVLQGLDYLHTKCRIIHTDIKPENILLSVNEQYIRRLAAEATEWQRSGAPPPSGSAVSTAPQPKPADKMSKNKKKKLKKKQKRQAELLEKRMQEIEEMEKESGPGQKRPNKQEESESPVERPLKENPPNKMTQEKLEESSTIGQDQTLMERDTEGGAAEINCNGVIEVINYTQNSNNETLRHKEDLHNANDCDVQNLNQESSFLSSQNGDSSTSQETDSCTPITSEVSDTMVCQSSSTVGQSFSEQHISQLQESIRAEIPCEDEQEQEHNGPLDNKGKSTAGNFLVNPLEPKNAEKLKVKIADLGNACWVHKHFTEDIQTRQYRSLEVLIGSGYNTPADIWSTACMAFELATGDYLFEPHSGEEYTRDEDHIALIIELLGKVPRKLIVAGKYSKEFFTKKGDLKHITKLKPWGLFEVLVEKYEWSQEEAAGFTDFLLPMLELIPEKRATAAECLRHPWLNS
Sequence of MLK3 (Q16584 whole entry, species assumed): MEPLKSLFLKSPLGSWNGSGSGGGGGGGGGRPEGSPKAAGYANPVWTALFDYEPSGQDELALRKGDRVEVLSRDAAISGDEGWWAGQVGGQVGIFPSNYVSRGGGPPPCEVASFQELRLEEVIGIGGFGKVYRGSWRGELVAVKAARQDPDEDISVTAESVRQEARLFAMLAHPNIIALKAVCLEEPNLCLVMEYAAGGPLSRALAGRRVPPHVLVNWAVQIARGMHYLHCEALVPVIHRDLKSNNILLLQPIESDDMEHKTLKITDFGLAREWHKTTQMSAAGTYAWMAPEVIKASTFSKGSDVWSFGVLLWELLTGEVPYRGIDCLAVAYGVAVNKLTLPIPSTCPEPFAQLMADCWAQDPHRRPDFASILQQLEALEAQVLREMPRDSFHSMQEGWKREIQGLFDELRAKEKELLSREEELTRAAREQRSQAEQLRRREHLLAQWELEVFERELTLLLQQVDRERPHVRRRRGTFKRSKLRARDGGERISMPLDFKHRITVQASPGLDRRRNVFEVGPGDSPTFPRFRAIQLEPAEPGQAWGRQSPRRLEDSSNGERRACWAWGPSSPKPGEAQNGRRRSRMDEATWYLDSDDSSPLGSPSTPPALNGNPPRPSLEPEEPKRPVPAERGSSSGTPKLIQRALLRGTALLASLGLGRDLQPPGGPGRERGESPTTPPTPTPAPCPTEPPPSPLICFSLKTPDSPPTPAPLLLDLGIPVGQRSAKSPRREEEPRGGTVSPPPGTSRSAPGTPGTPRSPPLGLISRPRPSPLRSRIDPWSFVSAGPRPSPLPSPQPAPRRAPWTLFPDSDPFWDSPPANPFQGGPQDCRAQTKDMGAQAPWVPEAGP
Sequence of IGF-1R (P08069 31-1367, species assumed): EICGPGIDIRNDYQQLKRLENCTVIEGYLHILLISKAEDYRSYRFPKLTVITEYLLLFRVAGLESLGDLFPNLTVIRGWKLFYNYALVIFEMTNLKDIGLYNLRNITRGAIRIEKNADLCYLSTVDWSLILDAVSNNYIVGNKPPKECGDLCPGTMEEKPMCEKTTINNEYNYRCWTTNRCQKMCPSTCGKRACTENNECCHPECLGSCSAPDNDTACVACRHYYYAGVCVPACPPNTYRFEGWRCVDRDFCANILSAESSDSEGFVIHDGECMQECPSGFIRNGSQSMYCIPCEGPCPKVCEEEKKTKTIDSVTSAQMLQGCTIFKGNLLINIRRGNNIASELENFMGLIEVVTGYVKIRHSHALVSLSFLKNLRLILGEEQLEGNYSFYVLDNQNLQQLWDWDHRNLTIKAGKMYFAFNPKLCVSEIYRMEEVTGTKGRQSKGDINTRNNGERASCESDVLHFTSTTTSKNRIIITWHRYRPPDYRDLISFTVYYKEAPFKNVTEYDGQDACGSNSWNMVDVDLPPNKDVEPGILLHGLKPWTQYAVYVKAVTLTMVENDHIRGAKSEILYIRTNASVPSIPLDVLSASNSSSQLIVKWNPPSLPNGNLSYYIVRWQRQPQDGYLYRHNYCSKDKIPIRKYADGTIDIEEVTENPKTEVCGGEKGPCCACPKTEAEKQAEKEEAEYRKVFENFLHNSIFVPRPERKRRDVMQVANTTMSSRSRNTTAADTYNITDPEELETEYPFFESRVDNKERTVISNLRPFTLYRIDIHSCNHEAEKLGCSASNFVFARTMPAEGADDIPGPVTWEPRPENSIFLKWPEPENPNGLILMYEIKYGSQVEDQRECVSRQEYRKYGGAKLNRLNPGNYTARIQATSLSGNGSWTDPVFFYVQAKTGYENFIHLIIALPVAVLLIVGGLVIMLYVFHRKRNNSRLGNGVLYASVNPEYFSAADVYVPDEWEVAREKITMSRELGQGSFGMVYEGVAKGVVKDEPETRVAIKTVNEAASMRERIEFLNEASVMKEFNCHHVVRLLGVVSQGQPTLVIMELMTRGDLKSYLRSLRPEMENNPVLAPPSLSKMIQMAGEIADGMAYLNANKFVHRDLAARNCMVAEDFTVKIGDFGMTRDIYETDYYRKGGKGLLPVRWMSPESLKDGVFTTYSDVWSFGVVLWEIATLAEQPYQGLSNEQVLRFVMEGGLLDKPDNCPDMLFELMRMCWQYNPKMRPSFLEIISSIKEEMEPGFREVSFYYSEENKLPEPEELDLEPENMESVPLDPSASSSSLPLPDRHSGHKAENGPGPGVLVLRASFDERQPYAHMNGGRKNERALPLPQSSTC

SMILES	residual kinase activity, MKK2 (MKK2)	residual kinase activity, ERK1 (ERK1)	residual kinase activity, JNK1 (JNK1)	residual kinase activity, PKBb (PKBb)	residual kinase activity, SGK1 (SGK1)	residual kinase activity, PKCz (PKCz)	residual kinase activity, CAMK1 (CAMK1)	residual kinase activity, LKB1 (LKB1)	residual kinase activity, AMPK (hum) (AMPK (hum))	residual kinase activity, CK2 (CK2)	residual kinase activity, SRPK1 (SRPK1)	residual kinase activity, MLK3 (MLK3)	residual kinase activity, IGF-1R (IGF-1R)	also measured
O=C(Nc1nc2cc(O)ccc2s1)c1ccncc1 [Compound 03-11]	98	88	95	82	84	86	85	87	98	68	66	95	107	
O=C(Nc1nc2ccc(O)cc2s1)c1ccccn1 [Compound 03-12]	82	74	105	61	88	88	47	64	90	57	63	46	54	
O=C(Nc1nc2cc(O)ccc2s1)c1ccccn1 [Compound 03-13]	82	97	93	60	74	102	111	45	71	78	57	57	84	
COc1ccc2sc(NC(C)=O)nc2c1 [Compound 03-21]									81	87				remaining activity at 100 µM (MKK2; read-out: residual kinase activity, MKK2): 90%; remaining activity at 100 µM (ERK1; read-out: residual kinase activity, ERK1): 87%; remaining activity at 100 µM (JNK1; read-out: residual kinase activity, JNK1): 97%; remaining activity at 100 µM (PKBb; read-out: residual kinase activity, PKBb): 92%; remaining activity at 100 µM (SGK1; read-out: residual kinase activity, SGK1): 82%; remaining activity at 100 µM (PKCz; read-out: residual kinase activity, PKCz): 85%; remaining activity at 100 µM (CAMK1; read-out: residual kinase activity, CAMK1): 81%; remaining activity at 100 µM (LKB1; read-out: residual kinase activity, LKB1): 93%; remaining activity at 100 µM (SRPK1; read-out: residual kinase activity, SRPK1): 84%; remaining activity at 100 µM (MLK3; read-out: residual kinase activity, MLK3): 59%; remaining activity at 100 µM (IGF-1R; read-out: residual kinase activity, IGF-1R): 78%
CC(=O)Nc1nc2ccccc2s1 [Compound 03-32]	96	83	97	112	92	126	99	97	86	96	59	71	74	
O=C(Nc1nc2cc(O)ccc2s1)c1cccnc1 [Compound 03-33]	85	93	111	93	86	105	104	83	87	88	58	48	50	
O=C(Nc1nc2ccc(O)cc2s1)c1ccccc1 [Compound 03-60]	90	67	88	86	41	80	22	68	27	16	3	5	18	
